Experimental data taken from patent US20100286247A1, “Methods of Protection from Oxidative Stress” (Trustees of Boston University, priority 2005, published 2010).
{P} = phosphate

What was measured:
GPX protein = assay: Western blot analysis of antioxidant enzymes: GPX protein; format: cell-based, human; conditions: 40 μM, within several hours, up to 168 hours
Experimental: (§1) Cell lysates were harvested at various intervals after T-oligo treatment in harvest buffer containing 0.25 M Tris HCl (pH 7.5), 0.375 M NaCl, 2.5% sodium deoxycholate, 1% Triton X-100, 25 mM MgCl2, 0.1 mg/ml aprotinin (Sigma, St. Louis, Mo.) and 1 mM phenylmethyl sulfonyl flouride (PMSF) (Sigma). Samples were sheared through a fine needle syringe, sonicated, centrifuged and the supernatant was isolated. Total cellular protein concentrations were determined spectrophotometrically with the Bio-Rad protein assay (Bio-Rad Laboratories, Inc, Hercules, Calif.). Equal amounts of total protein from each sample (35-65 μg) were separated by 10-15% polyacrylamide gel electrophoresis, and transferred to nitrocellulose membranes. […]
(§2) Membranes were reacted with antibodies diluted in Tris-based buffer with nonfat milk powder as a blocking agent. […] Antibody binding was detected with electrochemical luminescence (ECL kit, NEN Life Science Products, Inc.) and exposure to XAR film (Eastman Kodak Co.).
(§3) The levels of superoxide dismutase 1 (SOD1), superoxide dismutase 2 (SOD2), catalase (Cat) and glutathione peroxidase (GPX) were determined in newborn fibroblasts at different time points after treatment with 40 μM of T-oligo in comparison with cells treated either with 40 μM of control complementary oligo pCTAACCCTAAC (SEQ ID NO: 22) or diluent. […]

SOD1 protein = assay: Western blot analysis of antioxidant enzymes: SOD1 protein; format: cell-based, human; conditions: 40 μM, within several hours, up to 168 hours
Experimental: as §1, §2, §3

total p53 protein = assay: Western blot of total p53 (DO-1); format: cell-based, human; conditions: by 36-48 hours, sustained through 72 hours; 40 μM TO, 100 μM pTT
Experimental: Western blot analysis of proteins from cells treated and harvested in parallel with DCF time course studies was conducted as described above. Membranes were reacted with antibodies to total p53/DO-1 (1:1000 dilution, Oncogene Research Products, Cambridge, Mass.), anti-phoso-p53 (Ser-15) (1:1000 dilution, Cell Signaling Technology, Beverly, Mass.), and p21/Cip1/Waf1 (1:500 dilution, Transduction Laboratories, Lexington, Ky.), followed by appropriate secondary antibodies diluted 1:2000.

melanoma tumors = conditions: SCID mouse model; cited from earlier work
[1] = test system: primary human newborn dermal fibroblasts; assay: Determination of cell yields (Coulter counts); format: cell-based
Experimental: Cell culture followed previously published methods.^92 Primary human newborn dermal fibroblasts were cultured from neonatal circumcised foreskin specimens. The skin samples were treated overnight in a 0.25% trypsin solution at 4° C. to separate the epidermis from the dermis. The separated dermis was then cut into pieces and plated onto etched plastic tissue culture dishes. Primary culture medium consisted of DMEM supplemented with 10% bovine CS, 50 U/ml penicillin and 50 μg/ml streptomycin sulfate. […] Secondary culture medium consisted of DMEM supplemented with 10% CS.
Equal numbers of fibroblasts were seeded into 32 mm culture dishes, and paired dishes were treated with pTT or diluent control as described above. At 24, 48 and 72 hours of treatment, the cells were harvested by trypsinization and counted in an automated cell counter (Coulter Z Series, Beckman Coulter, Inc., Fullerton, Calif.). The experiments were conducted in parallel with the MTS assay, using the same donor cells.
Cell yields of pTT-treated fibroblasts were compared to diluent using 2-way ANOVA and a total of four different experiments, to identify significant difference between treatment groups as a function of cell number and time. The parallel MTS assay also utilized the 2-way ANOVA, to compare changes in OD at 492 nm as a function of time and treatment modality. […]

[2] = test system: S91 melanoma cells, cultured melanocytes, guinea pig skin; conditions: solutions of pTT; cited from earlier work

| Substance | GPX protein level (GPX protein) | SOD1 protein level (SOD1 protein) | total p53 (DO-1) protein response, TO vs pTT (total p53 protein) | melanoma tumors (melanoma tumors) | rate of fibroblast growth (cell yields) during treatment vs diluent ([1]; 100 μM pTT, 24-72 hours, 2-way ANOVA p=0.0079) | growth after replating in regular medium vs diluent-pretreated cells ([1]; 72 hours pretreatment with 100 μM pTT, no H2O2, p=0.0006) | melanin production [2] |
| --- | --- | --- | --- | --- | --- | --- | --- |
| pGTTAGGGTTAG (5' {P}, sugars by position and backbone not given here) [TO] | induced | induced | greater than to pTT | reduced melanoma tumors |  |  |  |
| 5′-phosphorylated thymidine dinucleotides [pTT] |  |  |  |  | significantly decreased | significantly stimulated growth | enhanced melanin production |
